According to ChEMBL document CHEMBL1147078, “Triptolide is a traditional Chinese medicine-derived inhibitor of polycystic kidney disease” (Proc Natl Acad Sci U S A, 2007):
Activity calls are given as the source filed them. The calls are words filed in the database; no cut-off is given here.

Key:
[1] = test system: Mus musculus; experiment: Toxicity in C57BL/6 mouse embryos at >=0.1 mg/kg/day, ip; format: organism-based; conditions: in vivo
[2] = species on record: Mus musculus; experiment: Increase in PC2 dependent calcium release in mouse Pkd1+/- cells at 100 nM; format: functional, cell-based
[3] = test system: Mus musculus; experiment: Toxicity in C57BL/6 mouse embryos at […], ip; format: organism-based; set-up: route intraperitoneal; conditions: in vivo
[4] = test system: Mus musculus; experiment: Effect on Pkd1+/- and Pkd1+/- inter crossed mouse assessed as decrease in kidney cyst burden in […] genotypic embryos at 0.07 mg/kg, ip from E10.5 stage to untill birth relative to control; format: functional, organism-based; set-up: dose 0.07 mg/kg
[5] = species on record: Mus musculus; experiment: Induction of cell growth arrest in mouse Pkd1-/- cells in presence of calcium; format: functional, cell-based
[6] = species on record: Mus musculus; experiment: Increase in PC2 dependent calcium release in mouse Pkd1-/- cells at 100 nM; format: functional, cell-based
[7] = Growth inhibition of mouse Pkd2-/- PC2-null cells assessed as cell viability at 100 nM after 24 hrs; format: functional; conditions: read-out: Activity
[8] = test system: Pkd; experiment: Increase in calcium response in mouse Pkd cells at […]; format: functional, cell-based
[9] = species on record: Mus musculus; experiment: Growth inhibition of PC2 expressing mouse Pkd2+/- cells as cell death at 100 nM after 24 hrs; format: functional
[10] = Growth inhibition of PC2 reconstituted mouse Pkd2-/- cells assessed as cell death at 100 nM after 24 hrs; format: functional; set-up: scale not given: the % may be the effect or the level left
[11] = species on record: Mus musculus; experiment: Increase in calcium release in mouse Pkd1-/- cells at 50 uM in presence of RyR antagonist dantrolene; format: functional, cell-based
[12] = species on record: Mus musculus; experiment: Increase in p21CIP/WAF expression in mouse Pkd1-/- cells at 100 nM after 96 hrs by Western blot analysis; format: functional, cell-based
[13] = Growth inhibition of mouse Pkd2-/- PC2-null cells assessed as cell death at 100 nM after 48 hrs; format: functional; set-up: scale not given: the % may be the effect or the level left
[14] = species on record: Mus musculus; experiment: Increase in calcium release in mouse Pkd2-/- cells at 100 nM; format: functional, cell-based

In the case of `CC(C)[C@]12O[C@H]1[C@@H]1O[C@]13[C@]1(O[C@H]1C[C@H]1C4=C(CC[C@@]13C)C(=O)OC4)[C@@H]2O` [TRIPTOLIDE], the Activity [1] is reported as “Toxic”, the Activity [2] is reported as “Active” and the Activity [3] is reported as “Non-toxic”. The Activity [4] was “Active”, the Activity [5] was “Active” and the Activity [6] was “Active”. The viability at 0.1 µM [7] was over 90%, the Activity [8] was “inactive” and the Activity [9] was “Active”. For the same compound, the Activity [10] was over 80%, the Activity [11] was “Active” and the Activity [12] was “Active”. For the same compound, the Activity [13] was over 50% and the Activity [14] was “inactive”.
